Like-named read-outs stand apart in the source and are kept apart here.
What was measured:
Assay in all cases: Test B pre-/postemergence plant response
Format in all cases: in vivo
[1] = tested on: bermudagrass (Cynodon dactylon); conditions: for pest or weed control at 31 g/ha: 31 g ai/ha; for pest or weed control at 62 g/ha: 62 g ai/ha, 100 complete control
Procedure, shortened: (§1)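 Seeds were sown and sprayed preemergence, while plants at 2 to 18 cm (1- to 4-leaf stage) got postemergence sprays. Compounds were formulated in a non-phytotoxic solvent mixture with surfactant. After 13 to 15 days in a greenhouse, injury was rated visually against untreated controls, 0 (no effect) to 100 (complete control).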

[2] = tested on: catchweed bedstraw (Galium aparine); conditions: Preemergence
Procedure, shortened: as §1

[3] = tested on: woolly cupgrass (Eriochloa villosa); conditions: for pest or weed control at 31 g/ha: 31 g ai/ha; for pest or weed control at 62 g/ha: 62 g ai/ha, 100 complete control
Procedure, shortened: as §1

[4] = tested on: velvetleaf (Abutilon theophrasti); conditions: for pest or weed control at 31 g/ha / pest or weed control at 62 g/ha: Abutilon theophrasti, read-out: Plant response rating, Velvetleaf; for pest or weed control at 31 g/ha: 31 g ai/ha; for pest or weed control at 62 g/ha: 62 g ai/ha, 100 complete control
Procedure, shortened: as §1

[5] = tested on: cocklebur (Xanthium strumarium); conditions: for pest or weed control at 31 g/ha: 31 g ai/ha; for pest or weed control at 62 g/ha: 62 g ai/ha, 100 complete control
Procedure, shortened: as §1

[6] = tested on: wheat (Triticum aestivum); conditions: for plant injury at 31 g/ha / plant injury at 62 g/ha: Triticum aestivum, read-out: Plant response rating, Wheat; for plant injury at 31 g/ha: 31 g ai/ha; for plant injury at 62 g/ha: 62 g ai/ha, 100 complete control
Procedure, shortened: as §1

wild oat (Avena fatua) = conditions: for pest or weed control at 31 g/ha / pest or weed control at 62 g/ha: Avena fatua, read-out: Plant response rating, Oat, Wild; for pest or weed control at 31 g/ha: 31 g ai/ha; for pest or weed control at 62 g/ha: 62 g ai/ha, 100 complete control
Procedure, shortened: as §1

[7] = tested on: downy bromegrass (Bromus tectorum); conditions: for pest or weed control at 31 g/ha: 31 g ai/ha; for pest or weed control at 62 g/ha: 62 g ai/ha, 100 complete control
Procedure, shortened: as §1

soybean (Glycine max) = conditions: for plant injury at 31 g/ha / plant injury at 62 g/ha: Glycine max, read-out: Plant response rating, Soybean; for plant injury at 31 g/ha: 31 g ai/ha; for plant injury at 62 g/ha: 62 g ai/ha, 100 complete control
Procedure, shortened: as §1

[8] = tested on: large crabgrass (Digitaria sanguinalis); conditions: for pest or weed control at 31 g/ha: 31 g ai/ha; for pest or weed control at 62 g/ha: 62 g ai/ha, 100 complete control
Procedure, shortened: as §1

[9] = 8 g ai/ha, postemergence, 0-100 scale
[10] = Preemergence, 8 g ai/ha, scale 0 to 100 (0 no effect, 100 complete control)
[11] = Preemergence, 16 g ai/ha, scale 0 to 100
[12] = 16 g ai/ha, postemergence, 0-100 scale
[13] = post-emergence, Postemergence, scale 0 to 100
[14] = post-emergence, Postemergence, scale 0 to 100, 0 no effect
[15] = pre-emergence, Preemergence, scale 0 to 100 (0 no effect, 100 complete control)
[16] = pre-emergence, Preemergence, 0 to 100 scale, 0 no effect

Cc1nn(C)c(=O)c(-c2nc(-c3ccc(Cl)cc3)sc2C)c1O [Compound 79, 4-[2-(4-chlorophenyl)-5-methyl-4-thiazolyl]-5-hydroxy-2,6-dimethyl-3(2H)-pyridazinone]
70%: pest or weed control at 31 g/ha (wild oat (Avena fatua); [15])
75: Crabgrass, Large plant response rating [8, 9]
100: Bermudagrass plant response rating ([1]; Preemergence, 16 g ai/ha, scale 0 to 100 (0 no effect, 100 complete control)) | Crabgrass, Large plant response rating [8, 11]
45: Oat, Wild plant response rating (wild oat (Avena fatua); [12])
0%: pest or weed control at 31 g/ha ([2]; Galium aparine, pre-emergence, 31 g ai/ha, scale 0 to 100 (0 no effect, 100 complete control), read-out: Plant response rating, Galium) | pest or weed control at 62 g/ha ([2]; Galium aparine, pre-emergence, 62 g ai/ha, 0 to 100 scale, 0 no effect, 100 complete control, read-out: Plant response rating, Galium) | pest or weed control at 31 g/ha [4, 13] | pest or weed control at 62 g/ha [4, 14] | pest or weed control at 31 g/ha [4, 15] | pest or weed control at 62 g/ha [4, 16] | pest or weed control at 16 g/ha ([5]; Xanthium strumarium, post-emergence, Postemergence, 16 g ai/ha, scale 0 to 100, read-out: Plant response rating, Cocklebur) | pest or weed control at 31 g/ha ([5]; Xanthium strumarium, post-emergence, Postemergence, scale 0 to 100, read-out: Plant response rating, Cocklebur) | pest or weed control at 62 g/ha ([5]; Xanthium strumarium, post-emergence, Postemergence, scale 0 to 100, 0 no effect, read-out: Plant response rating, Cocklebur) | pest or weed control at 31 g/ha ([5]; Xanthium strumarium, pre-emergence, Preemergence, scale 0 to 100 (0 no effect, 100 complete control), read-out: Plant response rating, Cocklebur) | pest or weed control at 62 g/ha ([5]; Xanthium strumarium, pre-emergence, Preemergence, 0 to 100 scale, 0 no effect, read-out: Plant response rating, Cocklebur) | plant injury at 31 g/ha [6, 15] | plant injury at 62 g/ha [6, 16] | pest or weed control at 16 g/ha ([7]; Bromus tectorum, post-emergence, Postemergence, 16 g ai/ha, scale 0 to 100, read-out: Plant response rating, Bromegrass, Downy)
70: Bermudagrass plant response rating [1, 9]
0: Galium plant response rating ([2]; 8 g ai/ha, scale 0 to 100 (0 no effect, 100 complete control)) | Galium plant response rating ([2]; 16 g ai/ha, scale 0 to 100) | Velvetleaf plant response rating [4, 9] | Velvetleaf plant response rating [4, 12] | Velvetleaf plant response rating [4, 10] | Velvetleaf plant response rating [4, 11] | Cocklebur plant response rating [5, 9] | Cocklebur plant response rating [5, 10] | Cocklebur plant response rating [5, 11] | Wheat plant response rating [6, 9] | Wheat plant response rating [6, 10] | Wheat plant response rating [6, 11] | Oat, Wild plant response rating (wild oat (Avena fatua); [10]) | Oat, Wild plant response rating (wild oat (Avena fatua); [11]) | Bromegrass, Downy plant response rating [7, 9] | Bromegrass, Downy plant response rating [7, 10] | Bromegrass, Downy plant response rating [7, 11] | Soybean plant response rating (soybean (Glycine max); [9]) | Soybean plant response rating (soybean (Glycine max); [12]) | Soybean plant response rating (soybean (Glycine max); [10]) | Soybean plant response rating (soybean (Glycine max); [11])
80%: pest or weed control at 16 g/ha ([1]; Cynodon dactylon, post-emergence, Postemergence, 16 g ai/ha, scale 0 to 100, read-out: Plant response rating, Bermudagrass) | pest or weed control at 62 g/ha ([3]; Eriochloa villosa, post-emergence, Postemergence, scale 0 to 100, 0 no effect, read-out: Plant response rating, Cupgrass, Woolly) | pest or weed control at 62 g/ha ([7]; Bromus tectorum, pre-emergence, Preemergence, 0 to 100 scale, 0 no effect, read-out: Plant response rating, Bromegrass, Downy) | pest or weed control at 16 g/ha ([8]; Digitaria sanguinalis, post-emergence, Postemergence, 16 g ai/ha, scale 0 to 100, read-out: Plant response rating, Crabgrass, Large)
65%: pest or weed control at 16 g/ha ([3]; Eriochloa villosa, post-emergence, Postemergence, 16 g ai/ha, scale 0 to 100, read-out: Plant response rating, Cupgrass, Woolly)
15%: plant injury at 31 g/ha (soybean (Glycine max); [13]) | plant injury at 62 g/ha (soybean (Glycine max); [14])
98%: pest or weed control at 62 g/ha (wild oat (Avena fatua); [14]) | plant injury at 31 g/ha (soybean (Glycine max); [15]) | pest or weed control at 62 g/ha ([8]; Digitaria sanguinalis, post-emergence, Postemergence, scale 0 to 100, 0 no effect, read-out: Plant response rating, Crabgrass, Large)
30%: pest or weed control at 31 g/ha ([7]; Bromus tectorum, post-emergence, Postemergence, scale 0 to 100, read-out: Plant response rating, Bromegrass, Downy)
65: Cupgrass, Woolly plant response rating [3, 11]
75%: pest or weed control at 31 g/ha ([3]; Eriochloa villosa, post-emergence, Postemergence, scale 0 to 100, read-out: Plant response rating, Cupgrass, Woolly)
95%: pest or weed control at 62 g/ha (wild oat (Avena fatua); [16])
60%: plant injury at 31 g/ha [6, 13] | pest or weed control at 31 g/ha (wild oat (Avena fatua); [13])
30: Oat, Wild plant response rating (wild oat (Avena fatua); [9])
60: Cupgrass, Woolly plant response rating [3, 9]
55%: pest or weed control at 31 g/ha ([7]; Bromus tectorum, pre-emergence, Preemergence, scale 0 to 100 (0 no effect, 100 complete control), read-out: Plant response rating, Bromegrass, Downy)
50%: pest or weed control at 62 g/ha ([7]; Bromus tectorum, post-emergence, Postemergence, scale 0 to 100, 0 no effect, read-out: Plant response rating, Bromegrass, Downy)
100%: pest or weed control at 31 g/ha ([1]; Cynodon dactylon, post-emergence, Postemergence, scale 0 to 100, read-out: Plant response rating, Bermudagrass) | pest or weed control at 62 g/ha ([1]; Cynodon dactylon, post-emergence, Postemergence, scale 0 to 100, 0 no effect, read-out: Plant response rating, Bermudagrass) | pest or weed control at 31 g/ha ([1]; Cynodon dactylon, pre-emergence, Preemergence, scale 0 to 100 (0 no effect, 100 complete control), read-out: Plant response rating, Bermudagrass) | pest or weed control at 62 g/ha ([1]; Cynodon dactylon, pre-emergence, Preemergence, 0 to 100 scale, 0 no effect, read-out: Plant response rating, Bermudagrass) | pest or weed control at 31 g/ha ([3]; Eriochloa villosa, pre-emergence, Preemergence, scale 0 to 100 (0 no effect, 100 complete control), read-out: Plant response rating, Cupgrass, Woolly) | pest or weed control at 62 g/ha ([3]; Eriochloa villosa, pre-emergence, Preemergence, 0 to 100 scale, 0 no effect, read-out: Plant response rating, Cupgrass, Woolly) | plant injury at 62 g/ha (soybean (Glycine max); [16]) | pest or weed control at 31 g/ha ([8]; Digitaria sanguinalis, pre-emergence, Preemergence, scale 0 to 100 (0 no effect, 100 complete control), read-out: Plant response rating, Crabgrass, Large) | pest or weed control at 62 g/ha ([8]; Digitaria sanguinalis, pre-emergence, Preemergence, 0 to 100 scale, 0 no effect, read-out: Plant response rating, Crabgrass, Large)
90: Bermudagrass plant response rating [1, 10]
85%: plant injury at 62 g/ha [6, 14] | pest or weed control at 31 g/ha ([8]; Digitaria sanguinalis, post-emergence, Postemergence, scale 0 to 100, read-out: Plant response rating, Crabgrass, Large)
20: Cupgrass, Woolly plant response rating [3, 10] | Wheat plant response rating [6, 12] | Crabgrass, Large plant response rating [8, 10]
